This is an account of results in article PMC13315578.

In data set [1] the target is T1, Min Elp3 (Methanocaldococcus infernus, UniProt D5VRB9, K302A).
T1 construct: gene Metin_0452; E. coli codon-optimized gene, N-terminal 6xHis tag with TEV site (pET28a-tev), tag kept for MST; E. coli BL21(DE3) host with isc operon; anaerobically purified, [4Fe-4S] cluster chemically reconstituted
Put plainly: microscale thermophoresis, hill fit. It is filed as binding. Conditions: anaerobic, pH 7.5, room temperature; His-tagged protein labelled with iFluor 647-Tris NTA; no tRNA. For orientation: Microscale thermophoresis detects binding through changes in fluorescence in a small temperature gradient.

The target of data set [2] is T2, Min Elp3 (Methanocaldococcus infernus, UniProt D5VRB9, M156W).
T2 construct: gene Metin_0452; E. coli codon-optimized gene, N-terminal 6xHis tag with TEV site (pET28a-tev), tag kept for MST; E. coli BL21(DE3) host with isc operon; anaerobically purified, [4Fe-4S] cluster chemically reconstituted
Put plainly: microscale thermophoresis, hill fit. Conditions: anaerobic, pH 7.5, room temperature; His-tagged protein labelled with iFluor 647-Tris NTA; no tRNA. It is filed as binding.

Data set [3] addresses T3, Min Elp3 (Methanocaldococcus infernus, UniProt D5VRB9).
T3 construct: gene Metin_0452; E. coli codon-optimized gene, N-terminal 6xHis tag with TEV site (pET28a-tev), tag kept for MST; E. coli BL21(DE3) host with isc operon; anaerobically purified, [4Fe-4S] cluster chemically reconstituted
T3 sequence (D5VRB9 1-534): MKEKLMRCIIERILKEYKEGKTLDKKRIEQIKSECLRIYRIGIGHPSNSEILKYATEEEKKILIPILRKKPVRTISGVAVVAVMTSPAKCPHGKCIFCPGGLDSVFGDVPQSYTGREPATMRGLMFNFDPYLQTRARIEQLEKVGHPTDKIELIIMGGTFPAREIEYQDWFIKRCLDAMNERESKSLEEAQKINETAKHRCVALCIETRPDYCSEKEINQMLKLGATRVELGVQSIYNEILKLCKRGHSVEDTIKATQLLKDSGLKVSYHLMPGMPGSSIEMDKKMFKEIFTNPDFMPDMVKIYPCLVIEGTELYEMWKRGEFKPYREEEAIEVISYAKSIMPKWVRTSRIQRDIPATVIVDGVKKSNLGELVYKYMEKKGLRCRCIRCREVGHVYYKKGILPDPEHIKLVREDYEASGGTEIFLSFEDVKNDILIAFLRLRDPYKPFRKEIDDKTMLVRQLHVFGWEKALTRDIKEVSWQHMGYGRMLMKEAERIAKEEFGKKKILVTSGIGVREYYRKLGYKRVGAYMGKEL
The data set is described as follows: microscale thermophoresis, hill fit. It is filed as binding. Conditions: anaerobic, pH 7.5, room temperature; His-tagged protein labelled with iFluor 647-Tris NTA; no tRNA.

Data set [4] addresses T4, Min Elp3 (Methanocaldococcus infernus, UniProt D5VRB9, E207A).
T4 construct: gene Metin_0452; E. coli codon-optimized gene, N-terminal 6xHis tag with TEV site (pET28a-tev), tag kept for MST; E. coli BL21(DE3) host with isc operon; anaerobically purified, [4Fe-4S] cluster chemically reconstituted
Put plainly: microscale thermophoresis, hill fit. It is filed as binding. Conditions: anaerobic, pH 7.5, room temperature; His-tagged protein labelled with iFluor 647-Tris NTA; no tRNA.

Data set [5] deals with T5, Min Elp3 (Methanocaldococcus infernus, UniProt D5VRB9, Y304A).
T5 construct: gene Metin_0452; E. coli codon-optimized gene, N-terminal 6xHis tag with TEV site (pET28a-tev), tag kept for MST; E. coli BL21(DE3) host with isc operon; anaerobically purified, [4Fe-4S] cluster chemically reconstituted
The data set is described as follows: microscale thermophoresis, hill fit. It is filed as binding. Conditions: anaerobic, pH 7.5, room temperature; His-tagged protein labelled with iFluor 647-Tris NTA; no tRNA.

Data set [6] has as its target T6, Min Elp3 WT (Methanocaldococcus infernus, UniProt D5VRB9 1-534).
T6 sequence: T3 sequence (D5VRB9 1-534)
The data set is described as follows: EMSA; EMSA: 250 nM tRNA, 0-20 uM Elp3, 100 mM HEPES pH 7.5, 750 mM NaCl, 25 mM DTT, 20 °C 30 min; 5% TBE gel at 4 °C. The settings on record: protein: recombinant; tags: N-terminal 6xHis-TEV site (pET28a-tev); tRNA fold, annealed.

T1 sequence (D5VRB9 whole entry K302A): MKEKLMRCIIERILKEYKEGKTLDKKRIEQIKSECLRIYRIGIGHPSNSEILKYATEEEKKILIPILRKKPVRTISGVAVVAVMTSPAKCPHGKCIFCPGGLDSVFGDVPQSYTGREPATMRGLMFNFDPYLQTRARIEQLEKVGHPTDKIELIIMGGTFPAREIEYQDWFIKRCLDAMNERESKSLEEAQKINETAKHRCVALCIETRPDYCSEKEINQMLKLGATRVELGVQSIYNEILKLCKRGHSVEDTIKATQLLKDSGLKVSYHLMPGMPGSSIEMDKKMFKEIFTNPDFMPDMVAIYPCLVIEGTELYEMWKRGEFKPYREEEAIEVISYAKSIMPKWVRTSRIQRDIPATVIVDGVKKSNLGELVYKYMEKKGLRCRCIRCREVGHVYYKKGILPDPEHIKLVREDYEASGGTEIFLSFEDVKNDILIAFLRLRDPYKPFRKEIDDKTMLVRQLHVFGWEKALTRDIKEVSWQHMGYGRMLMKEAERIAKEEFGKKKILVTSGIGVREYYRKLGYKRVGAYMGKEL
T2 sequence (D5VRB9 whole entry M156W): as the sequence (D5VRB9 whole entry K302A) above, with M156W, A302K counted along it
T4 sequence (D5VRB9 whole entry E207A): as the sequence (D5VRB9 whole entry K302A) above, with E207A, A302K counted along it
T5 sequence (D5VRB9 whole entry Y304A): as the sequence (D5VRB9 whole entry K302A) above, with A302K, Y304A counted along it

In the case of `C[S+](CC[C@H](N)C(=O)O)C[C@H]1O[C@@H](n2cnc3c(N)ncnc32)[C@H](O)[C@@H]1O` (stereo partly drawn) [SAM], the KD result in data set [1] is “K302A (light blue squares), and Y304A (cyan triangles) mutants bind cofactor SAM”; in data set [2], “Elp3 M156W (light blue squares) binds cofactor SAM with comparable affinity to WT Elp3”; in data set [3], “Elp3-SAM binding was measured by triplicate microscale thermophoresis (MST) assays”; in data set [4], “E207A (dark blue triangles), K302A (light blue squares), and Y304A (cyan triangles) mutants bind cofactor SAM”; in data set [5], “Y304A (cyan triangles) mutants bind cofactor SAM with comparable affinity to WT Elp3”.

B1: tRNA ArgUCU (structured_RNA)
RNA: GGACCCGUAGCCUAGCCUGGAUAGGGCACCGGCCUUCUAAGCCGGGGGUCGGGGGUUCAAAUCCCCCCGGGUCCGCCA
Turning to B1, the binding result in data set [6] was “binds”.
